# Patent US4636498A, “Formulation of antiinflammatory drugs” (Pfizer Inc., priority 1985, dated 1987)
# Values joined by “and” are separate entries in the source; they are usually repeats but may differ in a detail not shown here. Identical values can stand only once. Counter-ions that a name gives are not always drawn. Like-named read-outs stand apart in the source and are kept apart here.
# Key:
# [1] = test system: indomethacin-induced gastric lesions; experiment: Prevention of indomethacin-induced gastric lesions in rats; format: in vivo, rat (male, CD strain); settings: for ED50: Rattus norvegicus, po, mg/kg of free base, read-out: ID50 (the source's name)
# Description: Rats for testing were ordered to arrive the week before being tested, and acclimated that first week. Male, CD strain rats were used. By ordering at 100-125 grams, body weights during the second week generally ranged from 150-200 grams. Rats were fasted the day before the test, with food removed from the gang cages no later than 4 p.m. Following an overnight fast a loss of 15-20 grams body weight was anticipated, so volumes of test solutions required for the following day could be estimated. Water was allowed ad lib overnight and during the test itself. On the test day both oral and intraperitoneal dosing was done with volumes of 4.0 ml/kg. Therefore, by knowing approximate body weights (and therefore required volumes) as well as drug doses (mg/kg) to be used, the amount of antiulcer drug and indomethacin needed was determined and preweighed into test tubes the day before the test. The antiulcer drugs to be tested, in the form of their dihydrochloride salts, were put into solution or suspended. Distilled water was normally the vehicle used. Indomethacin was suspended in saline and homogenized with a small drop of Tween 80 (polysorbate 80) to prevent aggregation of particles. The indomethacin will not stay suspended in the saline, and it is critical that the test tube be well vortexed and the drug resuspended before each dose is drawn into a syringe. A random sample of the rats to be tested (usually about 20% of the total test group) was used to determine average body weight of the group. […] The rats were removed from the gang cage, given the test drug or vehicle p.o., and placed in individual cages. The timing of antiulcer drug dosing relative to the indomethacin challenge varied depending on the specific protocol used. As a typical test consisted of 7 groups of 7 rats each, a predose time of 45 minutes was conveniently used. This allowed about one minute to orally dose each rat. Indomethacin was administered i.p. after the predose time had elapsed. In the typical test mentioned above, this required going back to the first rat and beginning indomethacin injections as soon as the drug dosing was completed. To keep the predose time consistent, rats were also given the indomethacin at a rate of about one per minute. If the test compound was not expected to have a long duration of action, it was desirable to administer a second dose of antiulcer drug during the test. The typical time between indomethacin administration and sacrifice is 6.5 hours. […] Of course, control animals were also dosed with vehicle at this time. The rats were sacrificed 6.5 hours after administration of the indomethacin. The stomachs were excised, opened along the greater curvature, and rinsed under running water. Lightly rubbing the mucosa while holding it in the stream of water helped to remove some mucus and large clots of blood, but vigorous rubbing was avoided as it may dislodge blood from the indomethacin-induced hemorrhagic erosions, making the erosions extremely difficult to see. Next the stomachs were placed flat, mucosa side up, on a tray covered with saline-soaked towels. The lesions were then counted, or the stomachs held overnight for examination the following day. If they were stored overnight, the stomachs were first moistened with saline and placed in a polyethylene bag and in a refrigerator. The indomethacin-induced gastric lesions usually appeared as dark brown or black colored erosions in the corpus (the acid-secreting portion) of the stomach. The dark coloration is caused by the action of the gastric acid on blood within the erosion. Lesions were either punctate or linear in nature. Quantitative determination of lesion size has shown that the average lesion length is about 1 mm. Regardless of size, each individual lesion was counted as one. However, if one group of animals obviously had lesions of a different nature than the controls, this fact was recorded. […]
# ethanol-induced ulcers = experiment: Inhibition of ethanol-induced ulceration in rats; format: in vivo, rat (male); settings: as dihydrobromide salt
# Method: The antiulcer activity of the products of Examples 9 and 10 was also determined by an ethanol-induced rat ulcer assay. In this test, overnight fasted male rats are given drug (at 30 or 3 mg/kg) or water orally fifteen minutes prior to an orally administered dose of absolute ethanol (1.0 ml). One hour after the ethanol challenge the animals (8/group) are killed and the stomachs examined for the presence of lesions. After sacrifice the abdomen is opened and a locking hemostat placed at the pylorus. Six ml of a 4% solution of formaldehyde was injected into the stomach with a gastric feeding tube and a second locking hemostat was used to seal the esophagus. The stomach was removed, opened along the greater curvature and examined for ulceration.
# The scoring system used to quantitate the ethanol-induced lesions is given below.
# For each group of animals an ulcer index is calculated as follows: [formula]
# The percentage inhibition of ulcers is calculated as follows: [formula]
# [2] = particularly with indomethacin; cited from earlier work
# [3] = test system: gastric lesions induced by the ethanolamine salt of piroxicam; experiment: Gastric lesions in rats induced by the ethanolamine salt of piroxicam; format: in vivo, rat; settings: for ED50: Rattus norvegicus, po, 6.5 h, linear regression analyses
# Method: (§1) Adult male "specific pathogen free" rats weighing 140-160 grams of the CD strain (Sprague-Dawley) were obtained from Charles River Breeding Laboratories (Kingston, N.Y.). The animals were acclimated for approximately one week and tested when they reached a body weight of 200-225 grams. The rats were fasted for 16 hours and randomized into groups consisting of 8 to 10 animals which were normalized with regard to their average body weight. Gastric ulcers were induced in the animals by orally dosing the animals with a single 100 mg/kg dose of piroxicam solution containing the drug dissolved in 2 ml 0.1% methylcellulose in water (pH=6.8). Those animals receiving 2-guanidino-4-(2-methyl-4-imidazolyl)thiazole (0.3, 1.0, 3.3 or 10.0 mg/kg as the dihydrochloride salt) separately received that drug, dissolved in an additional 2 ml of the same medium, at about the same time. Six and one-half hours later, the animals were sacrificed by cervical dislocation and autopsied. The stomachs were surgically removed, dissected along the greater curvature and rinsed with cold water. The stomachs were individually scored for both linear and punctate lesions. The total number of lesions was used for scoring purposes. The data obtained from each group of rats was analyzed after calculation of the mean number +/- the standard error of total gastric lesions. The values obtained were also compared to the controls which received only piroxicam by the two-tailed Student's t-test for nonpaired data.
# According to the preceding Example, gastric ulcers were induced by a single dose of 100 mg of the ethanolamine salt of piroxicam. Test groups received 0.3, 1.0 and 3.3 mg/kg doses of 2-guanidino-4-(2-methyl-4-imidazolyl)thiazole.
# This test was repeated, using 120 mg of the ethanolamine salt of piroxicam to induce ulcers.
# According to Examples 2 and 3, gastric ulcers were induced by a single dose of 120 mg of the ethanolamine salt of piroxicam. Test groups received 0.03, 0.10 and 0.33 mg/kg doses of 2-(N-pentyl-N'-guanidino)-4-(2-methyl-4-imidazolyl)thiazole dihydrochloride.
# [4] = test system: adjuvant-induced arthritis; experiment: Adjuvant-induced arthritis in the rat (inhibition of paw edema); format: in vivo, rat (male Wistar-Lewis); settings: for ED50: Rattus norvegicus, po, piroxicam alone, linear regression analysis; for % Inhibition of Lesions, Primary: day 4, injected paw; for % Inhibition of Lesions, Secondary: day 16, non-injected paw
# Method: Adjuvant arthritis was induced in adult male Wistar-Lewis rats weighing 250-270 grams each (Charles River Breeding Laboratories, Kingston, N.Y.) by a single subplantar injection of 1 mg of Mycobacterium butyricum (Difco Laboratories, Lot #0640-33) suspended in 0.1 ml mineral oil as described by Walz et al. (Proc. Soc. Exptl. Biol. Med., 136: 907-910, 1971). Seven rats were used in each group. Orally administered drugs were dissolved in water and dilute sodium hydroxide was added as necessary to ensure solution; control groups received only water. After neutralization of the solutions to pH 7.0, a volume of 10 ml/kg body weight was given by intubation with a blunt end, 18-gauge needle. Doses of each drug were given daily starting 1 day before the injection of adjuvant and continuing until 16 days after the induction of the arthritic lesion.
# The initial hindpaw volumes (Vi) were measured on the day of adjuvant injection and the resultant swelling was determined on the injected paw (Vf - Vi) on the 4th day following the adjuvant injection. This was considered to be the primary response or lesion. The swelling (Vf - Vi) measured 16 days after adjuvant injection on the contralateral, non-injected hindpaw constituted the secondary response or lesion. The rats were weighed at the start of the experiments as well as 4 and 16 days after the induction of the disease. Percent inhibition of edema was calculated according to the following formula: [formula] […] This shift represents a 5 fold increase in the potency of piroxicam.
# [5] = test system: piroxicam-induced gastric lesions; experiment: Piroxicam-induced gastric lesions in rats; format: in vivo, rat (male, CD strain, Sprague-Dawley)
# Method: as §1, with “The values obtained were also compared to the controls which received only piroxicam by the two-tailed Student's t-test for nonpaired data.” left out
# [6] = Compound A oral dose 10.0 mg/kg
smiles,measurement,setting,value
"Cc1nc(-c2csc(N=C(N)NCc3ccccc3)n2)c[nH]1 [Compound C, 2-(N-Benzyl-N'-guanidino)-4-(2-methyl-4-imidazolyl)thiazole Dihydrochloride]",ED50,[1]; two drug doses,4.4 mg/kg
same,Inhibition of ethanol-induced ulceration,ethanol-induced ulcers; oral dose 3 mg/kg,at least 40%
same,Inhibition of ethanol-induced ulceration,ethanol-induced ulcers; oral dose 30 mg/kg,at least 77%
N[C@@](CF)(Cc1c[nH]cn1)C(=O)O [alphafluoromethylhistidine],Antiinflammatory activity (in words),[2],synergistic antiinflammatory activity
"CCCCCNC(N)=Nc1nc(-c2c[nH]c(C)n2)cs1 [Example 10, 4-(2-Methyl-4-imidazolyl)-2-(N-pentyl-N'-guanidino)thiazole Dihydrochloride]",Reduction in gastric lesions induced by the ethanolamine salt of piroxicam (in words),"[3]; Example 13, 0.03-0.33 mg/kg",significant reduction in gastric lesions
same,ED50,"[3]; Example 13, piroxicam ethanolamine salt 120 mg",0.1 mg/kg
same,Inhibition of ethanol-induced ulceration,ethanol-induced ulcers; oral dose 3 mg/kg,at least 40%
same,Inhibition of ethanol-induced ulceration,ethanol-induced ulcers; oral dose 30 mg/kg,at least 77%
CN1C(C(=O)Nc2ccccn2)=C(O)c2ccccc2S1(=O)=O [Piroxicam],ED50,"[4]; 96 h, read-out: ED50 against primary lesions",2.6 mg/kg
same,ED50,"[4]; 384 h, read-out: ED50 against secondary lesions",0.45 mg/kg
same,"% Inhibition of Lesions, Primary",[4]; piroxicam oral dose 0.10 mg/kg,29 (4) %
same,"% Inhibition of Lesions, Secondary","[4]; piroxicam oral dose 0.10 mg/kg, 0.1 mg/kg",26 (2) % and 26%
same,"% Inhibition of Lesions, Primary",[4]; piroxicam oral dose 0.33 mg/kg,33 (8) %
same,"% Inhibition of Lesions, Secondary","[4]; piroxicam oral dose 0.33 mg/kg, 0.33 mg/kg",43 (4) % and 43%
same,"% Inhibition of Lesions, Primary",[4]; piroxicam oral dose 1.00 mg/kg,45 (7) %
same,"% Inhibition of Lesions, Secondary","[4]; piroxicam oral dose 1.00 mg/kg, 1 mg/kg",64 (3) % and 64%
"CCCCCCNc1nc(-c2csc(NC(=N)N)n2)c[nH]1 [Compound B, 2-Guanidino-4-(2-hexylamino-4-imidazolyl)thiazole]",ED50,[1]; two drug doses,10.5 mg/kg
"N=C(N)Nc1nc(-c2c[nH]cn2)cs1 [Compound D, 2-guanidino-4-(4-imidazolyl)thiazole]",ED50,[1]; single drug dose,7.5 mg/kg
same,ED50,[1]; two drug doses,2 mg/kg
"Cc1nc(-c2csc(NC(=N)N)n2)c[nH]1.Cl.Cl [Compound A, 2-Guanidino-4-(2-methyl-4-imidazolyl)thiazole Dihydrochloride]",ED50,"[1]; single drug dose, obtained by extrapolation",1.4 mg/kg
same,ED50,"[1]; two drug doses, obtained by extrapolation",1.5 mg/kg
same,Reduction in lesion number,"[1]; lowest dose tested, 2.2 mg/kg",63%
same,Reduction of piroxicam-induced gastric lesions (in words),[5]; 0.3-10 mg/kg p.o.,significantly reduced piroxicam-induced gastric lesions
same,ED50,"[5]; Rattus norvegicus, po, 6.5 h, linear regression analyses, piroxicam 100 mg/kg",0.32 mg/kg
same,Reduction in gastric lesions induced by the ethanolamine salt of piroxicam (in words),"[3]; 0.3-3.3 mg/kg, piroxicam ethanolamine salt 100 mg",significant reduction in gastric lesions
same,ED50,[3]; piroxicam ethanolamine salt 100 mg,0.88 mg/kg
same,ED50,[3]; piroxicam ethanolamine salt 120 mg,0.3 mg/kg
same,"% Inhibition of Lesions, Primary",[4]; Compound A oral dose 1.0 mg/kg,0 (6) %
same,"% Inhibition of Lesions, Secondary",[4]; Compound A oral dose 1.0 mg/kg,3 (3) %
same,"% Inhibition of Lesions, Primary",[4]; Compound A oral dose 3.3 mg/kg,0 (3) %
same,"% Inhibition of Lesions, Secondary",[4]; Compound A oral dose 3.3 mg/kg,28 (4) %
same,"% Inhibition of Lesions, Primary",[4]; [6],2 (2) %
same,"% Inhibition of Lesions, Secondary",[4]; [6],27 (3) %
same,Activity against secondary lesions (in words),[4]; compound alone,significant activity against secondary lesions
same,Activity for primary lesions (in words),[4]; compound alone,no significant activity
same,ED50 against secondary lesions (in words),[4]; compound alone,no reliable ED50 could be extrapolated
